Assay results reported in patent US10130684B2, “Oral dissolving films for insulin administration, for treating diabetes” (PHARMEDICA LTD., priority 2011, dated 2018).

Test system: cultured human buccal tissue (EpiOral)
Experiment: In vitro buccal tissue permeation of insulin solutions with permeation enhancers
Assay type: in vitro ADME
Excerpt: To enable in vitro study of insulin release, the films were applied onto EpiOral tissues (MatTek) according to the Drug Absorption Protocol (ORL-202 & ORL-606), incorporated herein by reference. EpiOral tissues consist of normal, human-derived epithelial cells, which have been cultured to form multilayered, highly differentiated models of the human buccal phenotypes. EpiOral is a multilayered tissue consisting of an organized basal layer and multiple non-cornified layers analog to native human buccal tissue.
Insulin solution (0.60 mg/mL) was prepared in phosphate buffer (pH 6.8) solution (PBS). The above mentioned potential permeation enhancers were dissolved in the insulin solution to make solutions with desired ratios given in the table below:
Briefly, experiments were conducted in 37° C. incubator with 0.9 mL of PBS in receptor. 3.5 mL of donor solutions (n=4 for each formulation) were placed in the donor compartments. […] were collected from the receptor at time periods of 0.5, 1.0, 2.0, 3.0, 4.0 and 6.0 h, and were later assayed using HPLC.

increase of insulin release compared to the control (without a permeation enhancer) (Brij 35 as permeation enhancer): about 5 times
permeation effectiveness for insulin among the 3 tested compounds (Brij 58, Brij 35, sodium glycocholate compared): highest permeation effectiveness
Substance: polyoxyethylene (35) lauryl ether [Brij 35]
